Results reported in paper PMC9098913, “In vitro reconstitution of Escherichia coli divisome activation” (Nature Communications, 2022).
Like-named read-outs stand apart in the source and are kept apart here.

Assays:
FtsZ [1] = tested on: FtsZ;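 on effect on FtsZ pattern reorganization dynamics: FtsZ filament patterns imaged by time-lapse TIRF microscopy, one frame per 2 s, with ATP and GTP, Pearson correlation of first frame versus later frames, monoexponential fit, slower decay means persistent structures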
Protocol: (§1) Subsequently, the chamber was washed 6x with reaction buffer, to remove bulk peptide. To visualize colocalization with either FtsZ or FtsA, either a mix of FtsA and Alexa488-FtsZ or Cy3-FtsA and FtsZ was added. […] The time-lapse videos were recorded for 10 min after the addition, with one frame per 2 s.
Time-lapse videos were first intensity-corrected and contrast-enhanced to avoid bleaching effects and simplify subsequent analysis. To remove contributions of X–Y drift, the videos were processed with the Linear Stack Alignment with SIFT plugin. Proper alignment was checked with the 3TP align plugin (J. A. Parker; Beth Israel Deaconess Medical Center, Boston). Subsequently, regions of interest (ROIs) in the center of the stacks were chosen for colocalization analysis. The Pearson’s correlation coefficient (PCC) was quantified with the Image CorrelationJ 1o plugin. To extract information about the relative ratio of FtsZ/FtsA molecules (slope of linear regression), we also used the Image CorrelationJ 1o plugin. As an output, the plugin provides a scatterplot of FtsZ vs FtsA intensities, to which we fitted a linear slope y=k⋅x+d , where k is the slope and d the offset. The slope was used as an estimate for the ratio of FtsA molecules below FtsZ filaments.

FtsZ [2] = tested on: FtsZ; remark: listed apart in the source;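 on effect on FtsZ pattern reorganization dynamics: FtsZ filament patterns imaged by time-lapse TIRF microscopy, one frame per 2 s, with ATP and GTP, Pearson correlation of first frame versus later frames, monoexponential fit, slower decay means persistent structures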
Protocol: as §1
Treadmilling dynamics, were quantified using an automated image analysis protocol previously developed by our group. To visualize colocalization of the co-treadmilling FtsZ & FtsA filaments, we used dual-colour videos obtained at an acquisition rate of one frame per 2 s. The two channels were aligned using FIJI’s 3TP align plugin. Both channels were then subjected to the image subtraction protocol and colocalization was measured as described above.

FtsA/Z co-filaments = target: T1, FtsA/Z co-filaments (Escherichia coli, UniProt P0A9A6+P0ABH0, R286W); type: biochemical, E. coli; settings: all concentrations of FtsA R286W
T1 construct: TwinStrep-SUMO (N, cleaved yes); made in house; host or cells: E. coli BL21
T1 sequence (P0A9A6 whole entry): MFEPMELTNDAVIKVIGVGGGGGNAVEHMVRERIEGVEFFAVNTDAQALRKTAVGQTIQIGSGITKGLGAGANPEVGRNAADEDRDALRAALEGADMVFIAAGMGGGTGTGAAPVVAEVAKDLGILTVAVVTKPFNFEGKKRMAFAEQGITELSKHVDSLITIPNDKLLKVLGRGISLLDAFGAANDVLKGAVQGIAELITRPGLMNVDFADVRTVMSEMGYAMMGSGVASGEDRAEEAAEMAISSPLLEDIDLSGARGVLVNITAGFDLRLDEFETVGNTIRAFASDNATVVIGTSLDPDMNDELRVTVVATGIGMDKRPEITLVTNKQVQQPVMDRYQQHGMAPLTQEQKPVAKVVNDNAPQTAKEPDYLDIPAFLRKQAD
T1 sequence (P0ABH0 whole entry R286W): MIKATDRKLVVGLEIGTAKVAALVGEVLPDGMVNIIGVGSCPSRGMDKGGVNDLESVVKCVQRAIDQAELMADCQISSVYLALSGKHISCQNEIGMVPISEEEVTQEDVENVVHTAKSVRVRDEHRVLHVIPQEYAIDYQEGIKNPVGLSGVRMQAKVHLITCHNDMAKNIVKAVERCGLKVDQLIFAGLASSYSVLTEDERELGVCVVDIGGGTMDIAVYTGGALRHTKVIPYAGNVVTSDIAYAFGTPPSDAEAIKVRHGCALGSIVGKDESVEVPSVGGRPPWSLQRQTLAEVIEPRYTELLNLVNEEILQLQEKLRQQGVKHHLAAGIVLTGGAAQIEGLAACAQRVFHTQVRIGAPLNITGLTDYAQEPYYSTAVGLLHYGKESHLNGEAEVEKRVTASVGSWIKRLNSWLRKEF
Protocol: By fitting an exponential function to the increase of the PCC with time, we were able to extract the corresponding recruitment rate (Fig. 2f, g).
as §1

FtsZ-FtsA WT filaments = target: T2, FtsZ-FtsA WT filaments (Escherichia coli, UniProt P0A9A6+P0ABH0); type: binding, E. coli; settings: 0.2 µM FtsA WT, 1.25 µM FtsZ, […] Tris-NTA; p-value 0.03
T2 construct: TwinStrep-SUMO (N, cleaved yes); made in house; host or cells: E. coli BL21
T2 sequence (P0A9A6 whole entry): as the sequence (P0A9A6 whole entry) above
T2 sequence (P0ABH0 whole entry): as the sequence (P0ABH0 whole entry R286W) above, with W286R counted along it
From the text: Single molecule time lapses were acquired every 32 or 51 ms, with exposure times of 30 and 50 ms, respectively.
Single-molecule experiments with FtsNcytowere tracked using the TrackMate plugin from ImageJ[43]. Non-moving particles and short tracks (below 1 s) were filtered out and the data exported as.xml files. […] The packing coefficient is defined as the length of the trajectory in a short time window and the surface area that it occupies. […] This approach is adapted from Renner et al. and implemented here as an easy-to-use Python script. The packing coefficient is computed for each time point as:1 p=∑ii+n−1xi+1−xi^2−yi+1−yi^2/Si^2 Where xi,yi are the coordinates at time i, xi+1, yi+1 are the coordinates at time i+1, n is the length of the time window, and Si is the surface area of the convex hull of the trajectory segment between time points i and i+n. Periods of confinement are identified by setting a threshold corresponding to a certain confinement area size, since p scales with the size of the confinement area. Then it is possible to calculate the frequency and duration of confinement periods and to localize them in space. Each position will have a characteristic p, considering the behaviour of the following n positions. This approach overcomes the limitations of using MSD calculation, which overlooks transient confinement periods. […]

FtsZ [3] = settings: either version of FtsA
Protocol: Additionally, the reaction chamber contained 4 mM ATP and 4 mM GTP, as well as a scavenging system to minimize photobleaching effects: 30 mM d-glucose, 0.050 mg ml^−1 Glucose Oxidase, 0.016 mg ml^−1 Catalase, 1 mM DTT and 1 mM Trolox. Prior addition of all components a corresponding buffer volume was removed from the chamber to obtain a total reaction volume of 100 µl. The dynamic protein pattern was monitored by time-lapse TIRF microscopy at one frame per 2 s and 50 ms exposure time.
To measure reorganization dynamics of FtsZ filaments, we used a temporal correlation analysis based on the Image CorrelationJ 1o plugin. We quantified the PCC between the first frame to subsequent frames with increasing time lag (∆t). The decrease in the PCC was plotted against ∆t to obtain autocorrelation curves. Slower decay indicates more persistent structures. The rates of decay were extracted by fitting monoexponential decay to the autocorrelation curves y=a⋅e^−b⋅t+k , where a is the starting point, b is the decay rate and k is the final offset. The half time of the monoexponential decay was calculated via the decay rate.

[4] = FtsA R286W, even at concentrations above 0.4 µM

CSCC[C@H](NC(=O)[C@@H](N)CS)C(=O)N[C@@H](C)C(=O)N[C@@H](CCC(N)=O)C(=O)N[C@@H](CCCNC(=N)N)C(=O)N[C@@H](CC(=O)O)C(=O)N[C@@H](Cc1ccc(O)cc1)C(=O)N[C@H](C(=O)N[C@@H](CCCNC(=N)N)C(=O)N[C@@H](CCCNC(=N)N)C(=O)N[C@@H](CO)C(=O)N[C@@H](CCC(N)=O)C(=O)N1CCC[C@H]1C(=O)N[C@@H](C)C(=O)N1CCC[C@H]1C(=O)N[C@@H](CO)C(=O)N[C@@H](CCCNC(=N)N)C(=O)N[C@@H](CCCNC(=N)N)C(=O)N[C@@H](CCCCN)C(=O)N[C@@H](CCCCN)C(=O)N[C@@H](CO)C(=O)N[C@H](C(=O)N[C@@H](CO)C(=O)N[C@@H](CCCNC(=N)N)C(=O)N[C@@H](CCCCN)C(=O)N[C@@H](CCCCN)C(=O)N[C@@H](CCC(N)=O)C(=O)N[C@@H](CCCNC(=N)N)C(=O)N[C@@H](CC(N)=O)C(=O)N[C@@H](CC(C)C)C(=O)N1CCC[C@H]1C(=O)N[C@@H](C)C(=O)N[C@H](C(=O)N[C@@H](Cc1c[nH]cn1)C(=O)N[C@@H](Cc1c[nH]cn1)C(=O)N[C@@H](Cc1c[nH]cn1)C(=O)N[C@@H](Cc1c[nH]cn1)C(=O)N[C@@H](Cc1c[nH]cn1)C(=O)N[C@@H](Cc1c[nH]cn1)C(=O)O)C(C)C)[C@@H](C)O)C(C)C [FtsNcyto]
PCC FtsNcyto/FtsZ (FtsZ [1]; 0.4 µM FtsA R286W, […] Tris-NTA, 1.25 µM FtsZ, p-value 4.92 × 10^−4): 0.70 ± 0.02 | PCC FtsNcyto/FtsZ (FtsZ [1]; 0.4 µM FtsA WT, […] Tris-NTA, 1.25 µM FtsZ, p-value 4.92 × 10^−4): 0.30 ± 0.05 | PCC FtsNcyto/FtsZ (FtsZ [1]; [4]): > 0.6 | PCCdiff FtsNcyto/FtsZ (FtsZ [2]; 0.4 µM FtsA R286W, […] Tris-NTA, 1.25 µM FtsZ, p-value 3.79 × 10^−3): 0.47 ± 0.05 | PCCdiff FtsNcyto/FtsZ (FtsZ [2]; 0.4 µM FtsA WT, […] Tris-NTA, 1.25 µM FtsZ, p-value 3.79 × 10^−3): 0.17 ± 0.04 | PCCdiff FtsNcyto/FtsZ (FtsZ [2]; [4]): > 0.6 | FtsNcyto enrichment saturated within (FtsA/Z co-filaments): ≤ 1 min | frequency of transient confinement (FtsZ-FtsA WT filaments): 57.99 ± 7.29% | effect on FtsZ pattern reorganization dynamics (FtsZ [3]): significantly slows down
